According to ChEMBL document CHEMBL1201862, “PubChem BioAssay data set” (2004):
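A five-concentration, 48-hour dose response in 96-well plates underlies each endpoint, interpolated linearly between surrounding concentrations. At the GI50, growth is halved.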 Activity calls are given as the source filed them. Cut-off read from the data, not from the text of the source: active = GI50 up to about 1.1 µM and inactive = higher.

Legend:
Assay in all cases: DTP human tumour cell line panel, 48 h
CCRF-CEM = system: CCRF-CEM
DLD-1 = system: DLD-1
DMS-273 = system: DMS-273
HCC 2998 = system: HCC 2998
HCT-15 = system: HCT-15
HOP-18 = system: HOP-18
Hs-578T = system: Hs-578T
KM-20L2 = system: KM-20L2
M19-MEL = system: M19-MEL
MCF7 = system: MCF7
MDA-MB-231 = system: MDA-MB-231
NCI-H460 = system: NCI-H460
NCI/ADR-RES = system: NCI/ADR-RES
OVCAR-5 = system: OVCAR-5
PC-3 = system: PC-3
SK-MEL-28 = system: SK-MEL-28
SR = system: SR
T47D = system: T47D
HCT-116 = system: HCT-116
MDA-N = system: MDA-N

| SMILES | GI50 (CCRF-CEM) | GI50 (DLD-1) | GI50 (DMS-273) | GI50 (HCC 2998) | GI50 (HCT-15) | GI50 (HOP-18) | GI50 (Hs-578T) | GI50 (KM-20L2) | GI50 (M19-MEL) | GI50 (MCF7) | GI50 (MDA-MB-231) | GI50 (NCI-H460) | GI50 (NCI/ADR-RES) | GI50 (OVCAR-5) | GI50 (PC-3) | GI50 (SK-MEL-28) | GI50 (SR) | GI50 (T47D) | GI50 (HCT-116) | GI50 (MDA-N) |
| --- | --- | --- | --- | --- | --- | --- | --- | --- | --- | --- | --- | --- | --- | --- | --- | --- | --- | --- | --- | --- |
| CCC1(OC(=O)CN)C(=O)OCc2c1cc1n(c2=O)Cc2cc3ccccc3nc2-1 (stereo unspecified) | 0.01 µM (active) | 0.25 µM (active) | 0.00471 µM (active) | 0.0664 µM (active) | 0.149 µM | 0.0975 µM (active) | 6.14 µM (inactive) | 0.124 µM (active) | 0.123 µM (active) | 0.01 µM (active) | 0.38 µM (active) | 0.01 µM (active) | 0.0118 µM (active) | 0.0457 µM (active) | 0.0661 µM (active) | 0.101 µM (active) | 0.01 µM (active) | 0.012 µM (active) | – | – |
| O=C1CN2C(Cl)(Cl)C2(c2ccccc2)c2cc(Cl)ccc2N1CC1CC1 (stereo unspecified) | 27.2 µM (inactive) | 16.9 µM (inactive) | 25.5 µM (inactive) | 18.7 µM (inactive) | 19.3 µM | 23.8 µM (inactive) | – | 23.4 µM (inactive) | 35.4 µM (inactive) | – | – | 16.3 µM (inactive) | – | 37.4 µM (inactive) | – | 17.3 µM (inactive) | 29.2 µM (inactive) | – | 18.3 µM (inactive) | – |
| COc1ccc(C2N(NC(=O)c3ccncc3)C(=O)CS2(=O)=O)cc1F (stereo unspecified) | > 100 µM (inactive) | > 100 µM (inactive) | > 100 µM (inactive) | > 100 µM (inactive) | > 100 µM | > 100 µM (inactive) | – | – | – | – | – | > 100 µM (inactive) | – | > 100 µM (inactive) | – | > 100 µM (inactive) | > 100 µM (inactive) | – | > 100 µM (inactive) | – |
| O=c1ccc2cc3ccc4cccc5ccc(c2o1)c3c45 | > 100 µM (inactive) | > 100 µM (inactive) | – | – | > 100 µM | 5.7 µM (inactive) | – | > 100 µM (inactive) | > 100 µM (inactive) | – | – | 13.1 µM (inactive) | – | – | – | > 100 µM (inactive) | – | – | – | – |
| CC(C)(C)C(=O)OCC1C(=O)OCC1C(=O)N1Cc2cc3ccccc3nc2C1 (stereo unspecified) | 0.711 µM (active) | 1.55 µM (inactive) | 3.04 µM (inactive) | 15.5 µM (inactive) | 1.75 µM | 2.61 µM (inactive) | 15.3 µM (inactive) | 6.07 µM (inactive) | 3.54 µM (inactive) | 3.47 µM (inactive) | 4.62 µM (inactive) | 3.93 µM (inactive) | 4.92 µM (inactive) | 10.5 µM (inactive) | 10.9 µM (inactive) | 3.21 µM (inactive) | 0.757 µM (active) | 2.38 µM (inactive) | 2.09 µM (inactive) | 3.83 µM (inactive) |
| Cc1ccc(CCC(=O)C(=O)O)s1 | > 100 µM (inactive) | – | > 100 µM (inactive) | > 100 µM (inactive) | > 100 µM | > 100 µM (inactive) | – | > 100 µM (inactive) | > 100 µM (inactive) | – | – | > 100 µM (inactive) | – | > 100 µM (inactive) | – | > 100 µM (inactive) | > 100 µM (inactive) | – | 41 µM (inactive) | – |
| NC1CCCCC1 | 260 µM (inactive) | 200 µM (inactive) | 189 µM (inactive) | 310 µM (inactive) | 470 µM | < 0.0562 µM (active) | – | 192 µM (inactive) | 187 µM (inactive) | 199 µM (inactive) | – | 216 µM (inactive) | > 562 µM (inactive) | 386 µM (inactive) | – | 318 µM (inactive) | – | – | 193 µM (inactive) | – |
| CC(=O)[C@H]1CCC2[C@@H]3CC=C4C(O)C(OS(=O)(=O)O)CC[C@]4(C)C3CC[C@@]21C (stereo partly specified) | > 100 µM (inactive) | > 100 µM (inactive) | > 100 µM (inactive) | > 100 µM (inactive) | > 100 µM | > 100 µM (inactive) | – | > 100 µM (inactive) | > 100 µM (inactive) | > 100 µM (inactive) | – | > 100 µM (inactive) | > 100 µM (inactive) | > 100 µM (inactive) | – | > 100 µM (inactive) | – | – | > 100 µM (inactive) | – |
| O=C1CCC(c2ccccc2)=NN1c1nsc2ccccc12 | 61.4 µM (inactive) | – | 95.9 µM (inactive) | 60.8 µM (inactive) | > 100 µM | 19.6 µM (inactive) | – | > 100 µM (inactive) | > 100 µM (inactive) | – | – | 47.9 µM (inactive) | – | > 100 µM (inactive) | – | > 100 µM (inactive) | 58.9 µM (inactive) | – | 99.3 µM (inactive) | – |
| COc1ccc(/C=N/n2c(C)nc3c(sc(=S)n3-c3ccccc3)c2=O)cc1 | 21.1 µM (inactive) | > 100 µM (inactive) | – | > 100 µM (inactive) | – | > 100 µM (inactive) | – | – | 63.2 µM (inactive) | – | – | 31.6 µM (inactive) | – | > 100 µM (inactive) | – | 43.7 µM (inactive) | 44 µM (inactive) | – | > 100 µM (inactive) | – |
| NC(Cc1c[nH]c2ccccc12)C(=O)O (stereo not drawn) [DL-TRYPTOPHAN] | > 300 µM (inactive) | > 300 µM (inactive) | > 300 µM (inactive) | > 300 µM (inactive) | 64.6 µM | 54.1 µM (inactive) | – | > 300 µM (inactive) | > 300 µM (inactive) | > 300 µM (inactive) | – | > 300 µM (inactive) | > 300 µM (inactive) | > 300 µM (inactive) | – | > 300 µM (inactive) | – | – | > 300 µM (inactive) | – |
